# Experimental data: US8592368B2, “JAK/STAT inhibitors and MAPK/ERK inhibitors for RSV infection” (University of South Florida, priority 2003, dated 2013)
# Tests used:
# IκBα = IκBα phosphorylation in RSV-infected A549 cells (immunoblot); type: cell-based, human; conditions: A549 cells pre-incubated with AG490 (50 μM) or PD98059 for 4 hours, then RSV
# Description: FIGS. 8A-8D show the effects of inhibitors of phosphorylation of STAT-1α and ERK-1/2. In FIG. 8A, AG490- or PD98059-treated A549 cells were infected with RSV for 15 minutes. Total proteins were Western-blotted using specific anti-phospho antibodies to STAT-1α, ERK-1/2 or IκBα. Lane 1: mock-infected, lanes 2-4: RSV infected for 30 minutes, lane 3: cells treated with 50 μM of AG490 prior to RSV infection, lane 4: cells treated with 25 μM of PD98059 for 4 hours prior RSV infection. In FIG. 8B, the bands were quantified by densitometry and the relative intensity of phosphoSTAT-1α, phospho-ERK and phospho-IκBα with respect to uninfected control (lane 1) was determined. The experiment was repeated twice and the result of a representative experiment is shown. […] In FIG. 8D, the bands were quantified by densitometry and the relative intensity of phospho-ERK and ERK was determined in each band. […]
# Whole cell protein extracts were prepared by lysing cells in 50 mM HEPES, 150 mM NaCl, 1 mM EDTA, 1 mM EGTA, 10% glycerol, 0.5% NP-40, 0.1 mM phenylmethylsulfonyl fluoride, 2.5 μg/ml leupeptin, 0.5 mM NaF, and 0.1 mM sodium vanadate. […] The antibody reactions were detected by enhanced chemiluminescence using LUMIGLO (CELL SIGNALLING TECHNOLOGY).
# HIV-1 = conditions: Yang and Gabuzda 1999; cited from earlier work
# RSV [1] = assay: Immunofluorescence count of RSV-infected A549 cells; type: cell-based, respiratory syncytial virus; conditions: A549 cells treated with PD98059, 24 hours of RSV infection, vs control
# Description: FIGS. 4A-4F that blocking STAT-1α attenuates RSV gene transcription and infection. A549 cells were treated with 50 µM AG490 for 4 hours before being exposed to supRSV for 30 minutes. Lysates were separated by SDS-PAGE and immunoblotted using antibodies to phospho-STAT-1α and STAT-1α. The total number of syncytia-forming plaques (PFU/ml) was counted 72 hours post-infection. Each value represents means SEM (N=3, *p<0.001). Cell proliferation was determined by viable cell counts. A549 cells were cotransfected with the pRL-TK plasmid and either the WT (pRc/CMV STAT-1α) (lanes 1 and 2) or DN mutant (pRc/CMV STAT-1α) (Y701F) (lanes 3 and 4) and then exposed to supRSV for 30 minutes. Lysates were separated by SDS-PAGE and immunoblotted for phospho-STAT-1α or STAT-1α. A549 cells were transfected with WT or DN-STAT-1α constructs and 24 hours later exposed to RSV for 30 minutes. RSV replication was measured by RT-PCR analysis of N protein gene expression. The percentage of infected cells was determined using immunofluorescence in cells transfected with WT or DN-STAT-1α. […]
# In FIG. 9A, PD98059- or DMSO-treated A549 cells were infected with RSV. […] The RSV titers were determined using a HEP-2 cell-based plaque assay as described. […] Twenty-four hours after transfection, A549 cells were infected with RSV for 90 minutes and 24 hours after the % of infected cells was determined with FITC-RSV antibody. […]
# STAT-1α = STAT-1α phosphorylation in RSV-infected A549 cells (immunoblot); type: cell-based, human; conditions: for RSV-induced STAT-1α phosphorylation: A549 cells pre-incubated with AG490 (50 μM) or PD98059 for 4 hours, then RSV, densitometry of Western blot
# Description: (§1) FIGS. 4A-4F that blocking STAT-1α attenuates RSV gene transcription and infection. A549 cells were treated with 50 µM AG490 for 4 hours before being exposed to supRSV for 30 minutes. Lysates were separated by SDS-PAGE and immunoblotted using antibodies to phospho-STAT-1α and STAT-1α. The total number of syncytia-forming plaques (PFU/ml) was counted 72 hours post-infection. Each value represents means SEM (N=3, *p<0.001). Cell proliferation was determined by viable cell counts. A549 cells were cotransfected with the pRL-TK plasmid and either the WT (pRc/CMV STAT-1α) (lanes 1 and 2) or DN mutant (pRc/CMV STAT-1α) (Y701F) (lanes 3 and 4) and then exposed to supRSV for 30 minutes. Lysates were separated by SDS-PAGE and immunoblotted for phospho-STAT-1α or STAT-1α. A549 cells were transfected with WT or DN-STAT-1α constructs and 24 hours later exposed to RSV for 30 minutes. RSV replication was measured by RT-PCR analysis of N protein gene expression. The percentage of infected cells was determined using immunofluorescence in cells transfected with WT or DN-STAT-1α. The values are means SEM (*p<0.001).
# FIGS. 8A-8D show the effects of inhibitors of phosphorylation of STAT-1α and ERK-1/2. In FIG. 8A, AG490- or PD98059-treated A549 cells were infected with RSV for 15 minutes. Total proteins were Western-blotted using specific anti-phospho antibodies to STAT-1α, ERK-1/2 or IκBα. Lane 1: mock-infected, lanes 2-4: RSV infected for 30 minutes, lane 3: cells treated with 50 μM of AG490 prior to RSV infection, lane 4: cells treated with 25 μM of PD98059 for 4 hours prior RSV infection. In FIG. 8B, the bands were quantified by densitometry and the relative intensity of phosphoSTAT-1α, phospho-ERK and phospho-IκBα with respect to uninfected control (lane 1) was determined. The experiment was repeated twice and the result of a representative experiment is shown. […] A549 cells were co-transfected with RL-TK plasmid and either the WT (pRc/CMV-STAT-1α) (lanes 3 and 4) or DN mutant (pRc/CMV-STAT-1α) (Y701F) (lanes 5 and 6) and were infected with RSV for 30 minutes after 24 hours of transfection. […] In FIG. 8D, the bands were quantified by densitometry and the relative intensity of phospho-ERK and ERK was determined in each band. […]
# Immunoblotting was carried out as previously described (Behera, A. K. et al. Biochem. Biophys. Res. Commun., 1998, 251(3): 704-709). After transfer, membranes were blocked with 5% non-fat dried milk, incubated with antibody to a specific STAT protein or to the corresponding phospho-STAT protein (NEW ENGLAND BIOLABS, Beverly, Mass.), secondary antibody conjugated to horseradish peroxidase was added, and immunocomplexes detected by enhanced chemiluminescence (NEW ENGLAND BIOLABS, Beverly, Mass.). […]
# rgRSV = rgRSV infection of primary NHBE cells (fluorescent images); type: cell-based, respiratory syncytial virus; conditions: AG490 50 μM or PD98059 80 μM 2 hours before rgRSV, images after 16 hours
# Description: FIGS. 10A-10F show the effects of STAT and ERK-1/2 inhibitors on RSV infection of NHBE cells. NHBE cells were treated with either AG490 (50 μM) (FIGS. 10C and 10D) or PD98059 (80 μM) (FIGS. 10E and 10F) for 2 hours. DMSO was used as a mock control (FIGS. 10A and 10B). After inhibitor removal, cells were infected with rgRSV for 2 hours. Then, rgRSV was removed and growth medium with inhibitors was added to the cells for 16 hours before fluorescent images (DMSO, FIG. 10B; AG490, FIG. 10D; PD98059, FIG. 10F) as well as light transmission images (DMSO, FIG. 10A; AG490, FIG. 10C; PD98059, FIG. 10E) were taken.
# RSV A2 strain was obtained from the American Type Culture Collection (ATCC, Rockville, Md., USA). In some experiments, rgRSV (an engineered RSV expressing enhanced green fluorescent protein) was used. A549 cell line, representing type II alveolar epithelial cells, was obtained from the ATCC. The cells were grown at 37° C. in 5% CO2 in RPMI medium, supplemented with 10% fetal bovine serum. Normal human bronchial epithelial cells (NHBE) were obtained from CAMBREX (Walkersville, Md., USA) and grown in serum-free bronchial epithelium growth medium supplemented as indicated by the manufacturer. NHBE at passage 2 and 3 was used for the experiments.
# A549 cells were incubated with AG490 (50 μM) or PD98059 (80 μM) for 4 hours at 37° C. and then infected with RSV. […]
# ERK-1/2 = ERK-1/2 phosphorylation in RSV-infected A549 cells (immunoblot); type: cell-based, human
# Description: Proteins were isolated from untreated cells (lane 1) or cells infected with RSV for 30 minutes (lanes 2-6) after pretreatment of cells for 30 minutes with heparinase (lane 3) or heparin (lane 5), or infected with virus pretreated with heparinase (lane 4) or heparin (lane 6) prior to addition to the cells. Proteins were separated by SDS-PAGE, blotted and probed with anti-phospho ERK-1/2 and then re-probed with anti-ERK-1/2.
# FIGS. 8A-8D show the effects of inhibitors of phosphorylation of STAT-1α and ERK-1/2. In FIG. 8A, AG490- or PD98059-treated A549 cells were infected with RSV for 15 minutes. Total proteins were Western-blotted using specific anti-phospho antibodies to STAT-1α, ERK-1/2 or IκBα. Lane 1: mock-infected, lanes 2-4: RSV infected for 30 minutes, lane 3: cells treated with 50 μM of AG490 prior to RSV infection, lane 4: cells treated with 25 μM of PD98059 for 4 hours prior RSV infection. In FIG. 8B, the bands were quantified by densitometry and the relative intensity of phosphoSTAT-1α, phospho-ERK and phospho-IκBα with respect to uninfected control (lane 1) was determined. The experiment was repeated twice and the result of a representative experiment is shown. […] A549 cells were co-transfected with RL-TK plasmid and either the WT (pRc/CMV-STAT-1α) (lanes 3 and 4) or DN mutant (pRc/CMV-STAT-1α) (Y701F) (lanes 5 and 6) and were infected with RSV for 30 minutes after 24 hours of transfection. Total proteins were extracted and Western-blotted using antibodies to phospho-STAT-1α, phospho-ERK-1/2 and re-probed with antibodies to STAT-1α or ERK-1/2. In FIG. 8D, the bands were quantified by densitometry and the relative intensity of phospho-ERK and ERK was determined in each band. […]
# Whole cell protein extracts were prepared by lysing cells in 50 mM HEPES, 150 mM NaCl, 1 mM EDTA, 1 mM EGTA, 10% glycerol, 0.5% NP-40, 0.1 mM phenylmethylsulfonyl fluoride, 2.5 μg/ml leupeptin, 0.5 mM NaF, and 0.1 mM sodium vanadate. […] The antibody reactions were detected by enhanced chemiluminescence using LUMIGLO (CELL SIGNALLING TECHNOLOGY). […]
# RSV [2] = assay: RSV plaque assay (syncytia-forming plaques, HEp-2 cell-based); parameters: species or system respiratory syncytial virus; conditions: A549 cells, AG490 pretreatment, plaques counted 72 hours post-infection
# Description: as §1, with “(*p<0.001). […]” for “(*p<0.001).”
# A549 cells = type: cell-based, human
# Description: as §1
# To rule out the possibility that this effect on viral replication is due to diminished cell proliferation, viable cells were enumerated at 12, 24, 48, and 72 hours after treatment with inhibitors.
# RSV [3] = conditions: treatment of cells; Feldman et al. 1999; cited from earlier work
Compound,IκBα phosphorylation (IκBα),infectivity of HIV-1 virions (HIV-1),percentage of infected cells (RSV [1]),RSV-induced STAT-1α phosphorylation (STAT-1α),number of infected cells (rgRSV),"ERK activation (phospho-ERK-1/2) (ERK-1/2; A549 cells pre-incubated with AG490 50 μM, then RSV)",RSV infection by plaque assay (PFU/ml) (RSV [2]),cytotoxic or anti-proliferative effects (viable cell counts) (A549 cells),"phosphorylation of STAT-1α (STAT-1α; A549 cells preincubated with AG490 for 4 hours, then supRSV 30 minutes, vs untreated controls)","RSV-induced activation of ERK-1/2 (ERK-1/2; A549 cells, heparin pretreatment, RSV 30 minutes)",ERK-1/2 phosphorylation induced by pretreated RSV (ERK-1/2; RSV pretreated with heparin or heparinase before addition to A549 cells),"RSV-induced activation of STAT-1 (STAT-1α; A549 cells or RSV pretreated with heparin 1000 U/ml or heparinase 10 U/ml, RSV 30 minutes)",RSV infection (RSV [3])
COc1cccc(-c2cc(=O)c3ccccc3o2)c1N [PD98059],significantly affected the phosphorylation,reduced the infectivity of HIV-1 virions,decrease in the percentage of infected cells,significantly affected the phosphorylation,significant reduction in the number of infected cells,,,,,,,,
N#C/C(=C/c1ccc(O)c(O)c1)C(=O)NCc1ccccc1 [AG490],decrease,,,decrease in RSV-induced STAT-1K phosphorylation,significant reduction in the number of infected cells,failed to inhibit ERK activation,significantly (p<0.001) decreased RSV infection,no cytotoxic or anti-proliferative effects,decreased phosphorylation of STAT-1α,,,,
heparin,,,,,,,,,,abolished the RSV-induced activation of ERK-1/2,did not induce ERK-1/2 phosphorylation,abolished,blocks RSV infection
